From patent publication US20250170154A1 (GreenStone Biosciences, Inc., priority 2023, published 2025)
Where two headings read alike, the source gives them in different places.

Experiments:
log P = assay type: physicochemical
[1] = tested on: children with Sanfillipo syndrome; conditions: 160 mg/kg/day for 12 months, median age 7.2 years; cited from earlier work
[2] = tested on: rat model of monocrotaline-induced pulmonary hypertension; conditions: Matori et al.; cited from earlier work
healthy volunteers = conditions: amorphous solid dispersion, single doses 500 to 3000 mg, then 3000 mg over six consecutive days; cited from earlier work
[3] = tested on: wild-type mice fed a high fat diet; experiment: Genistein in wild-type mice fed a high fat diet; assay type: in vivo, mouse; conditions: high fat diet 12 weeks, then intraperitoneal 200 mg/Kg genistein in corn oil for 14 days
[4] = target: G protein-coupled estrogen receptor (Homo sapiens, UniProt Q99527); conditions: cited from earlier work
[5] = tested on: transthyretin tetramer (TTR); conditions: Green et al.; cited from earlier work
[6] = target: transthyretin tetramer (TTR) (Homo sapiens, UniProt P02766); conditions: Green et al.; cited from earlier work
[7] = tested on: patients with bladder cancer; conditions: 300 and 600 mg daily for 21 days; cited from earlier work
mdx mice = conditions: Messina et al., cited from earlier work
[8] = Thermodynamic solubility in FaSSIF; assay type: physicochemical; conditions: thermodynamic from solid, room temperature, 24 hours shaking
Experimental: After shaking, the samples were centrifuged at 25° C. for 20 minutes at 4000 rpm. Filtrates were prepared using the Whatman Mini-UniPrep Syringeless Filter Device (PTFE filter media with polypropylene housing, pore size 0.45 μm) from Cytiva, and dilutions were performed as required. Quantification of all samples was carried out using an LC-UV system.

[9] = tested on: Db/Db mice fed a high fat diet; experiment: Genistein in Db/Db mice fed a high fat diet; assay type: in vivo, mouse; conditions: high fat diet 6 weeks, then oral gavage 50 mg/Kg genistein in corn oil for 47 days
[10] = Pharmacokinetics in the rat, dosing in solution; conditions: in vivo, solution, 25 mg/Kg nominal, fasted male SD rat
postmenopausal women = conditions: 54 mg per day, cited from earlier work
[11] = Pharmacokinetics in the rat, solid form (powder in mini-capsules); assay type: in vivo
[12] = tested on: mice with L-arginine induced acute pancreatitis; conditions: Siriviriyakul et al., cited from earlier work
[13] = tested on: rats with cerulein (AEP) or sodium taurocholate (ANP) induced pancreatitis; conditions: Xia et al.; cited from earlier work
[14] = solid form, genistein 71 mg/Kg together with 14.2 mg/Kg inulin

Sequence of G protein-coupled estrogen receptor (Q99527 whole entry): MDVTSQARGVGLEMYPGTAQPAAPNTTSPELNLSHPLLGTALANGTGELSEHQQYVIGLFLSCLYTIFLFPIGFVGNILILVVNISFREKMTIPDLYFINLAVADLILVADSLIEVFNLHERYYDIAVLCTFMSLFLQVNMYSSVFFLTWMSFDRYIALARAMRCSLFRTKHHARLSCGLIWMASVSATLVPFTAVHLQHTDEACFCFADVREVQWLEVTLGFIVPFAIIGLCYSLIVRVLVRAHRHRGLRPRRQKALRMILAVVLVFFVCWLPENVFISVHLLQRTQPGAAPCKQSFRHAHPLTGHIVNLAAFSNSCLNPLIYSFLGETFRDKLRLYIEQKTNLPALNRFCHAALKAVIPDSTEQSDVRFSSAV

Question: With `O=c1c(-c2ccc(O)cc2)coc2cc(O)cc(O)c12` [Genistein, 5,7-dihydroxy-3-(4-hydroxyphenyl)-4H-chromen-4-one] as the compound, how does the logP (log P) read?
Answer: 3.04

Question: And the adverse effects [1]?
Answer: No treatment-specific severe adverse effects were reported

Question: And the “monocrotaline-induced preexisting PH” value [2]?
Answer: reversed

Question: And the “progression of severe PH to right heart failure” value [2]?
Answer: prevented

Question: What about the “right ventricular ejection fraction” value [2] of the same compound?
Answer: restoring

Question: And the right ventricular pressure [2]?
Answer: reducing

Question: And the adverse effects (healthy volunteers)?
Answer: No significant adverse effects were reported, other than instances of diarrhea, headache or nausea at the highest dosages

Question: What about the “reduction of fasting blood glucose” value [3] of the same compound?
Answer: ~30%

Question: What about the “affinity, agonist of G protein-coupled estrogen receptor” value [4] of the same compound?
Answer: 133 nM

Question: And the “amyloidogenesis of TTR mutations V30M and V122I” value [5]?
Answer: inhibits

Question: And the “acid-mediated fibril formation, of that exhibited by TTR alone” value [6]?
Answer: < 10%

Question: What about the “binding to TTR in plasma over all of the other plasma proteins” value [6] of the same compound?
Answer: highly selective binding

Question: And the tolerability [7]?
Answer: well tolerated, with no to mild side effects

Question: What about the “markers of oxidative stress” value (mdx mice) of the same compound?
Answer: reduced

Question: And the muscle necrosis (mdx mice)?
Answer: reduced

Question: What about the muscle regeneration (mdx mice) of the same compound?
Answer: enhanced

Question: And the serum creatine-kinase levels (mdx mice)?
Answer: reduced

Question: What about the “forelimb strength and strength normalized to weight” value (mdx mice; five-week old mdx mice, five weeks, daily or 3-times/week) of the same compound?
Answer: increased

Question: What about the solubility at 24 h ([8]; read-out: Solubility) of the same compound?
Answer: 27 µM

Question: And the solubility at 24 h ([8]; read-out: Solubility (μg/mL))?
Answer: 7.29 µg/mL

Question: And the “reduction of HbA1C” value [9]?
Answer: ~37%

Question: And the “reduction of fasting blood glucose” value [9]?
Answer: ~57%

Question: And the AUC(0-t) ([10]; read-out: mean AUC0-last of dosed compound in plasma)?
Answer: ~500 ng·h/mL

Question: And the Cmax ([10]; read-out: mean cmax of dosed compound in plasma)?
Answer: ~300 ng/mL

Question: And the half-life ([10]; read-out: mean t1/2 of dosed compound in plasma (converted))?
Answer: ~1.3 h

Question: And the Tmax ([10]; read-out: mean tmax of dosed compound in plasma (converted))?
Answer: 0.167 h

Question: What about the “bone mineral density at femoral neck and lumbar spine” value (postmenopausal women; after 36 months) of the same compound?
Answer: greater increases

Question: And the “mammographic breast density, endometrial thickness, expression of BRCA1 and BRCA2” value (postmenopausal women; after 36 months)?
Answer: no significant changes

Question: What about the “sister chromatid exchange compared to placebo” value (postmenopausal women; after 36 months) of the same compound?
Answer: reducing

Question: What about the “discomfort or adverse events between participants” value (postmenopausal women) of the same compound?
Answer: No differences

Question: And the AUC(0-t) ([11]; male, SD, rat, in vivo, po, 71 mg/kg, solid form, genistein 71 mg/Kg alone, considerable variability, read-out: mean AUC0-last of dosed compound in plasma)?
Answer: ~500 ng·h/mL

Question: What about the AUC(0-t) ([11]; male, SD, rat, in vivo, po, 71 mg/kg, solid form, genistein 71 mg/Kg together with 14.2 mg/Kg inulin, read-out: mean AUC0-last with addition of inulin) of the same compound?
Answer: ~300 ng·h/mL

Question: And the Cmax ([11]; male, SD, rat, in vivo, po, 71 mg/kg, read-out: mean cmax of dosed compound in plasma)?
Answer: ~160 ng/mL

Question: And the Tmax ([11]; male, SD, rat, in vivo, po, 71 mg/kg, read-out: mean tmax of dosed compound in plasma)?
Answer: ~3 h

Question: And the half-life ([11]; male, SD, rat, in vivo, po, read-out: mean t1/2 of dosed compound in plasma (converted))?
Answer: ~2 h

Question: And the “effect of inulin on the peak” value [11, 14]?
Answer: slightly reducing

Question: What about the “time of peak with addition of inulin” value [11, 14] of the same compound?
Answer: around 5 hours

Question: And the “edema, necrosis and cell death induced by L-arginine” value ([12]; 10 mg/Kg/day and 100 mg/Kg/day)?
Answer: significantly reducing

Question: And the “serum amylase, IL-6 and CRP levels” value ([12]; 10 mg/Kg/day and 100 mg/Kg/day)?
Answer: significantly reduced

Question: What about the “NF-κB and 4-HNE expression” value [12] of the same compound?
Answer: curbing

Question: What about the “necrosis, edema and inflammatory infiltration compared to the experimental models” value [13] of the same compound?
Answer: mitigated
